Data taken from the CheMixHub viscosity set.

Assay: xn = mol fraction of the nth substance listed

CCCCOC(C)=O + CCC(C)O
viscosity [mPa·s], 100 kPa
Conditions	x1 = 0.081	x1 = 0.16	x1 = 0.24	x1 = 0.35	x1 = 0.44	x1 = 0.5598	x1 = 0.6499	x1 = 0.74	x1 = 0.85	x1 = 0.94
293.15 K	2.444	1.639	1.195	0.976	0.907	0.859	0.827	0.794	0.757	0.736
298.15 K	2.041	1.423	1.045	0.87	0.805	0.768	0.746	0.732	0.703	0.681
303.15 K	1.797	1.267	0.941	0.767	0.713	0.692	0.677	0.663	0.649	0.636
308.15 K	1.523	1.084	0.844	0.692	0.644	0.618	0.604	0.597	0.592	0.584
313.15 K	1.28	0.951	0.756	0.633	0.585	0.555	0.544	0.541	0.546	0.542
318.15 K	1.111	0.828	0.681	0.575	0.531	0.506	0.5	0.5	0.502	0.501
323.15 K	0.963	0.748	0.619	0.535	0.497	0.477	0.466	0.46	0.455	0.457

CCCN + CCC(C)O
303.15 K, 101 kPa
Conditions	viscosity [mPa·s]
x1 = 0.008438	2.439
x1 = 0.01874	2.408
x1 = 0.02903	2.377
x1 = 0.04186	2.343
x1 = 0.0458	2.329
x1 = 0.05767	2.3
x1 = 0.06786	2.277
x1 = 0.07593	2.253
x1 = 0.08515	2.224

CCCCOC(C)=O + CCCCCC
viscosity [mPa·s]
Conditions	298.15 K	308.15 K
101 kPa, x1 = 0.0521	0.3	0.282
101 kPa, x1 = 0.1491	0.319	0.3
101 kPa, x1 = 0.2486	0.341	0.321
101 kPa, x1 = 0.3517	0.368	0.346
101 kPa, x1 = 0.4482	0.397	0.372
101 kPa, x1 = 0.4932	0.412	0.385
101 kPa, x1 = 0.5515	0.433	0.403
101 kPa, x1 = 0.6483	0.472	0.436
101 kPa, x1 = 0.7486	0.519	0.474
101 kPa, x1 = 0.8491	0.574	0.517
101 kPa, x1 = 0.9461	0.635	0.565
101.3 kPa, x1 = 0.1335	0.3275	–
101.3 kPa, x1 = 0.2322	0.3509	–
101.3 kPa, x1 = 0.3294	0.3762	–
101.3 kPa, x1 = 0.4644	0.4191	–
101.3 kPa, x1 = 0.5644	0.4558	–
101.3 kPa, x1 = 0.6697	0.4996	–
101.3 kPa, x1 = 0.8002	0.5626	–
101.3 kPa, x1 = 0.8967	0.6164	–
101.3 kPa, x1 = 0.9324	0.6456	–

CCCOC(=O)c1ccccc1 + CCCCCC
101 kPa
Conditions	viscosity [mPa·s]
298.15 K, x2 = 0.0545	2.09
298.15 K, x2 = 0.1249	1.794
298.15 K, x2 = 0.1605	1.659
298.15 K, x2 = 0.2369	1.409
298.15 K, x2 = 0.2765	1.298
298.15 K, x2 = 0.33	1.155
298.15 K, x2 = 0.3772	1.043
298.15 K, x2 = 0.4847	0.827
298.15 K, x2 = 0.5259	0.756
298.15 K, x2 = 0.5689	0.69
298.15 K, x2 = 0.6152	0.627
298.15 K, x2 = 0.6632	0.569
298.15 K, x2 = 0.7031	0.525
298.15 K, x2 = 0.7496	0.479
298.15 K, x2 = 0.7954	0.448
298.15 K, x2 = 0.8308	0.42
298.15 K, x2 = 0.8752	0.399
298.15 K, x2 = 0.9201	0.371
298.15 K, x2 = 0.9574	0.351
308.15 K, x2 = 0.0876	1.62
308.15 K, x2 = 0.1454	1.451
308.15 K, x2 = 0.1923	1.32
308.15 K, x2 = 0.2499	1.174
308.15 K, x2 = 0.3064	1.046
308.15 K, x2 = 0.3543	0.95
308.15 K, x2 = 0.4116	0.845
308.15 K, x2 = 0.4488	0.785
308.15 K, x2 = 0.5082	0.698
308.15 K, x2 = 0.5509	0.643
308.15 K, x2 = 0.5926	0.594
308.15 K, x2 = 0.6346	0.55
308.15 K, x2 = 0.6803	0.507
308.15 K, x2 = 0.7241	0.468
308.15 K, x2 = 0.7719	0.433
308.15 K, x2 = 0.8096	0.406
308.15 K, x2 = 0.857	0.376
308.15 K, x2 = 0.8946	0.354
308.15 K, x2 = 0.9406	0.334
318.15 K, x2 = 0.0693	1.388
318.15 K, x2 = 0.1096	1.288
318.15 K, x2 = 0.1613	1.172
318.15 K, x2 = 0.221	1.048
318.15 K, x2 = 0.2711	0.954
318.15 K, x2 = 0.3284	0.856
318.15 K, x2 = 0.3767	0.781
318.15 K, x2 = 0.432	0.705
318.15 K, x2 = 0.4801	0.644
318.15 K, x2 = 0.5314	0.586
318.15 K, x2 = 0.5757	0.54
318.15 K, x2 = 0.6264	0.494
318.15 K, x2 = 0.6694	0.457
318.15 K, x2 = 0.7292	0.411
318.15 K, x2 = 0.76	0.391
318.15 K, x2 = 0.8056	0.362
318.15 K, x2 = 0.8466	0.34
318.15 K, x2 = 0.892	0.32
318.15 K, x2 = 0.9292	0.304

CCCCCCCC(=O)O + CCCCCC(=O)[O-].[Na+]
100 kPa, x2 = 0.3
Conditions	viscosity [mPa·s]
293.15 K	305.9
298.15 K	226.5
303.15 K	171.1
308.15 K	131.6
313.15 K	103
318.15 K	81.7
323.15 K	65.7

CCCCCCCCCCCCCCCCCCCC + CCCCCCC
viscosity [mPa·s], 101.3 kPa
Conditions	x1 = 0.2	x1 = 0.4	x1 = 0.499	x1 = 0.597	x1 = 0.796
293.2 K	0.9382	–	–	–	–
303.2 K	0.8194	1.567	2.02	–	–
313.2 K	0.7187	1.327	1.705	2.145	2.989

CCCCOC(C)=O + CCCCCCC
298.15 K, 101.3 kPa
Conditions	viscosity [mPa·s]
x1 = 0.0364	0.4006
x1 = 0.1529	0.4135
x1 = 0.2504	0.4295
x1 = 0.3266	0.4449
x1 = 0.4281	0.4667
x1 = 0.5399	0.4974
x1 = 0.6531	0.5328
x1 = 0.7531	0.5696
x1 = 0.8609	0.6155
x1 = 0.9693	0.6674

CCCOC(=O)c1ccccc1 + CCCCCCC
viscosity [mPa·s], 101 kPa
Conditions	x1 = 0.099	x1 = 0.1965	x1 = 0.2952	x1 = 0.395	x1 = 0.4959	x1 = 0.5924	x1 = 0.6991	x1 = 0.7981	x1 = 0.8973
298.15 K	0.444	0.516	0.603	0.707	0.842	1.017	1.254	1.526	1.853
308.15 K	0.399	0.466	0.531	0.614	0.734	0.874	1.051	1.248	1.525
318.15 K	0.358	0.408	0.472	0.55	0.638	0.754	0.897	1.064	1.266
